Laboratory results: the supplement of paper PMC10307832

Legend:
Assay in all cases: relative viability (nuclei count vs DMSO), 5 days (fraction); higher = more cells survive
[1] = tested on: NCI-H1734
Method in brief: (§1)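 Five library-drug doses in √10 steps were combined with a fixed anchor-drug dose, or a single drug was given alone, by pin tool to lung cancer cell lines in 1536-well plates the day after seeding. Nuclei were stained and counted after 5 days. Relative viability is the nuclei count in treated wells over that in vehicle wells, taken as the median of duplicate plates.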

[2] = tested on: NCI-H1755
Method in brief: as §1

[3] = tested on: PC-14
Method in brief: as §1

[4] = tested on: NCI-H2228
Method in brief: as §1

[5] = tested on: H3255
Method in brief: as §1

[6] = tested on: NCI-H1355
Method in brief: as §1

[7] = tested on: NCI-H2342
Method in brief: as §1

[8] = tested on: NCI-H661
Method in brief: as §1

[9] = tested on: LK-2
Method in brief: as §1

[10] = tested on: NCI-H2405
Method in brief: as §1

[11] = tested on: NCI-H1650; conditions: first compound 0.04 µM
Method in brief: as §1

Cc1sc2c(c1C)C(c1ccc(Cl)cc1)=N[C@@H](CC(=O)OC(C)(C)C)c1nnc(C)n1-2 [JQ1] + Cc1cc(Nc2cc(N3CCN(C)CC3)nc(Sc3ccc(NC(=O)C4CC4)cc3)n2)n[nH]1 [Tozasertib] (partner 0.1 µM)
relative viability ([1]; first compound 0.04 µM): 0.259
relative viability ([1]; first compound 0.1265 µM): 0.209
relative viability ([1]; first compound 0.4 µM): 0.215
relative viability ([1]; first compound 1.265 µM): 0.204
relative viability ([1]; first compound 4 µM): 0.212
relative viability ([2]; first compound 0.04 µM): 0.587
relative viability ([2]; first compound 0.1265 µM): 0.584
relative viability ([2]; first compound 0.4 µM): 0.566
relative viability ([2]; first compound 1.265 µM): 0.444
relative viability ([2]; first compound 4 µM): 0.411
relative viability ([3]; first compound 0.04 µM): 0.593
relative viability ([3]; first compound 0.1265 µM): 0.385
relative viability ([3]; first compound 0.4 µM): 0.314
relative viability ([3]; first compound 1.265 µM): 0.125
relative viability ([3]; first compound 4 µM): 0.0518
relative viability ([4]; first compound 0.04 µM): 0.286
relative viability ([4]; first compound 0.1265 µM): 0.284
relative viability ([4]; first compound 0.4 µM): 0.207
relative viability ([4]; first compound 1.265 µM): 0.126
relative viability ([4]; first compound 4 µM): 0.08
relative viability ([5]; first compound 0.04 µM): 0.65
relative viability ([5]; first compound 0.1265 µM): 0.625
relative viability ([5]; first compound 0.4 µM): 0.64
relative viability ([5]; first compound 1.265 µM): 0.426
relative viability ([5]; first compound 4 µM): 0.204
relative viability ([6]; first compound 0.04 µM): 0.522
relative viability ([6]; first compound 0.1265 µM): 0.387
relative viability ([6]; first compound 0.4 µM): 0.324
relative viability ([6]; first compound 1.265 µM): 0.23
relative viability ([6]; first compound 4 µM): 0.202
relative viability ([7]; first compound 0.04 µM): 0.65
relative viability ([7]; first compound 0.1265 µM): 0.436
relative viability ([7]; first compound 0.4 µM): 0.46
relative viability ([7]; first compound 1.265 µM): 0.45
relative viability ([7]; first compound 4 µM): 0.336
relative viability ([8]; first compound 0.04 µM): 0.37
relative viability ([8]; first compound 0.1265 µM): 0.486
relative viability ([8]; first compound 0.4 µM): 0.37
relative viability ([8]; first compound 1.265 µM): 0.435
relative viability ([8]; first compound 4 µM): 0.401
relative viability ([9]; first compound 0.04 µM): 0.18
relative viability ([9]; first compound 0.1265 µM): 0.192
relative viability ([9]; first compound 0.4 µM): 0.195
relative viability ([9]; first compound 1.265 µM): 0.151
relative viability ([9]; first compound 4 µM): 0.166
relative viability ([10]; first compound 0.04 µM): 0.716
relative viability ([10]; first compound 0.1265 µM): 0.712
relative viability ([10]; first compound 0.4 µM): 0.723
relative viability ([10]; first compound 1.265 µM): 0.584
relative viability ([10]; first compound 4 µM): 0.498
relative viability [11]: 0.355
